From BigSolDB 2.1

**Q.** For `CCN(CC)CCNC(=O)c1c(C)[nH]c(/C=C2\C(=O)Nc3ccc(F)cc32)c1C.O=C(O)C[C@H](O)C(=O)O`, which solubility (mole fraction) (in PEG-400, 298.2 K) is on record?
**A.** Its solubility (mole fraction) is 0.00634.

**Q.** And the solubility (mole fraction) (in PEG-400, 303.2 K)?
**A.** Its solubility (mole fraction) is 0.0076.

**Q.** What about the solubility (mole fraction) (in PEG-400, 308.2 K) of the same compound?
**A.** The solubility (mole fraction) was 0.00996.

**Q.** What about the solubility (mole fraction) (in PEG-400, 313.2 K) of the same compound?
**A.** Its solubility (mole fraction) is 0.0129.

**Q.** What about the solubility (mole fraction) (in PEG-400, 318.2 K) of the same compound?
**A.** Its solubility (mole fraction) is 0.0167.

**Q.** What about the solubility (mole fraction) (in ethanol, 298.2 K) of the same compound?
**A.** Its solubility (mole fraction) is 0.00277.

**Q.** What about the solubility (mole fraction) (in ethanol, 303.2 K) of the same compound?
**A.** Its solubility (mole fraction) is 0.00321.

**Q.** What about the solubility (mole fraction) (in ethanol, 308.2 K) of the same compound?
**A.** Its solubility (mole fraction) is 0.00372.

**Q.** And the solubility (mole fraction) (in ethanol, 313.2 K)?
**A.** The solubility (mole fraction) was 0.0043.

**Q.** What about the solubility (mole fraction) (in ethanol, 318.2 K) of the same compound?
**A.** The solubility (mole fraction) was 0.00516.

**Q.** And the solubility (mole fraction) (in ethylene glycol, 298.2 K)?
**A.** The solubility (mole fraction) was 0.00104.

**Q.** What about the solubility (mole fraction) (in ethylene glycol, 303.2 K) of the same compound?
**A.** The solubility (mole fraction) was 0.00139.

**Q.** What about the solubility (mole fraction) (in ethylene glycol, 308.2 K) of the same compound?
**A.** Its solubility (mole fraction) is 0.00186.

**Q.** What about the solubility (mole fraction) (in ethylene glycol, 313.2 K) of the same compound?
**A.** Its solubility (mole fraction) is 0.00244.

**Q.** And the solubility (mole fraction) (in ethylene glycol, 318.2 K)?
**A.** Its solubility (mole fraction) is 0.00313.

**Q.** What about the solubility (mole fraction) (in isopropanol, 298.2 K) of the same compound?
**A.** Its solubility (mole fraction) is 0.00634.

**Q.** And the solubility (mole fraction) (in isopropanol, 303.2 K)?
**A.** The solubility (mole fraction) was 0.0076.

**Q.** What about the solubility (mole fraction) (in isopropanol, 308.2 K) of the same compound?
**A.** The solubility (mole fraction) was 0.00996.

**Q.** What about the solubility (mole fraction) (in isopropanol, 313.2 K) of the same compound?
**A.** Its solubility (mole fraction) is 0.0129.

**Q.** What about the solubility (mole fraction) (in isopropanol, 318.2 K) of the same compound?
**A.** Its solubility (mole fraction) is 0.0167.

**Q.** And the solubility (mole fraction) (in propylene glycol, 298.2 K)?
**A.** Its solubility (mole fraction) is 0.00179.

**Q.** What about the solubility (mole fraction) (in propylene glycol, 303.2 K) of the same compound?
**A.** The solubility (mole fraction) was 0.00228.

**Q.** And the solubility (mole fraction) (in propylene glycol, 308.2 K)?
**A.** Its solubility (mole fraction) is 0.00303.

**Q.** What about the solubility (mole fraction) (in propylene glycol, 313.2 K) of the same compound?
**A.** The solubility (mole fraction) was 0.00385.

**Q.** And the solubility (mole fraction) (in propylene glycol, 318.2 K)?
**A.** Its solubility (mole fraction) is 0.00483.

**Q.** And the solubility (mole fraction) (in transcutol, 298.2 K)?
**A.** Its solubility (mole fraction) is 0.00997.

**Q.** And the solubility (mole fraction) (in transcutol, 303.2 K)?
**A.** The solubility (mole fraction) was 0.0117.

**Q.** And the solubility (mole fraction) (in transcutol, 308.2 K)?
**A.** The solubility (mole fraction) was 0.0136.

**Q.** And the solubility (mole fraction) (in transcutol, 313.2 K)?
**A.** Its solubility (mole fraction) is 0.0163.

**Q.** What about the solubility (mole fraction) (in transcutol, 318.2 K) of the same compound?
**A.** The solubility (mole fraction) was 0.0187.

**Q.** And the solubility (mole fraction) (in water, 298.2 K)?
**A.** Its solubility (mole fraction) is 3.72e-06.

**Q.** What about the solubility (mole fraction) (in water, 303.2 K) of the same compound?
**A.** Its solubility (mole fraction) is 4.74e-06.

**Q.** What about the solubility (mole fraction) (in water, 308.2 K) of the same compound?
**A.** Its solubility (mole fraction) is 6.09e-06.

**Q.** What about the solubility (mole fraction) (in water, 313.2 K) of the same compound?
**A.** Its solubility (mole fraction) is 8.46e-06.

**Q.** And the solubility (mole fraction) (in water, 318.2 K)?
**A.** Its solubility (mole fraction) is 1.05e-05.
